From patent US20260218197A1, “EXTRACELLULAR VESICLE SECRETION REDUCING AGENT FOR REDUCING EXTRACELLULAR VESICLE SECRETION, AND USE OF THE SAME” (THEORIA SCIENCE INC., priority 2020, published 2026)

Experiments:
Type in all cases: cell-based, human
[1] = system: colorectal cancer cells HCT116; experiment: CD63 immunofluorescence / coimmunostaining (intracellular EV accumulation); details: HCT116, 2.5 μmol/L, 48 hours, serine-deficient medium, compared with NC (DMSO)
Procedure: (§1) Colorectal cancer cells HCT116 and lung cancer cells A549 were transfected with siRNA (siPSAT1) in the same manner as in the item (2) in Example A1, and EV biogenesis after PSAT1 silencing was examined. For the respective silenced transformants, CD63 and PSAT1 were examined by immunofluorescence.
(§2) Further, coimmunostaining of the EV marker CD63 and also an early endosome marker EEA1 or a late endosome marker Rab7 was conducted for the PSAT1-silenced transformants. As a result, no overlap was observed between EEA1 and CD63 in either the PSAT1-silenced transformants or the negative control transformants. […] On this account, the CD63 single-positive area was measured based on the intensity. […] This confirmed that EVs had accumulated in the cells.
(§3) Specifically, the test was performed in the following manner. Colorectal cancer cells HCT116 and lung cancer cells A549 were each seeded in a 6-well plate at 1.5×10^5 cells/well (Day 0), and incubated for 24 hours in a medium (DMEM with 10% FBS, 1×anti-anti medium). After the incubation (Day 1), the above-described medium was removed, and thereafter, a serine-deficient medium and an inhibitor solution were added to the wells. The inhibitor solution was prepared by dissolving NCT-503 in DMSO, and the concentration of the inhibitor per well was set to 2.5 μmol/L. Then, after another 48 hours of incubation (Day 3), the medium in the wells was collected and the cells in the wells were counted. As negative controls (NC), the test was performed in the same manner, except that DMSO was added instead of the inhibitor solution.
(§4) EVs accumulated in the cells were analyzed in the following manner. Specifically, the collected cells were immunostained, the CD63 single-positive area was measured based on the fluorescence intensity, and the fluorescence intensity measured in the area was divided by the number of nuclei to determine the amount of EVs accumulated in each cell. On the other hand, secreted EVs were collected from the collected medium and then subjected to the NTA. In the NTA, the amount of secreted EVs was determined as a relative value calculated assuming that the amount of the secreted EVs in the negative control was 1.

lung cancer cells A549 [2] = experiment: as above; details: A549, 2.5 μmol/L, 48 hours, serine-deficient medium, compared with NC (DMSO)
Procedure: as §1, §2, §3, §4

[3] = system: colorectal cancer cells HCT116; experiment: Amount of secreted EVs by the NTA method; details: HCT116, 2.5 μmol/L, 48 hours, serine-deficient medium, compared with NC (DMSO)
Procedure: (§5) The cultured cancer cells were washed with phosphate buffered saline (PBS), and the medium was replaced with advanced RPMI or advanced DMEM containing the above-described antibiotic-antimycotic agent and 2 mmol/L L-glutamine (Gibco). The adjusted culture solution after the replacement was centrifuged at 2,000×g for 10 minutes to remove the cells, and the supernatant obtained was filtered through a 0.22 μm filter (Millipore). The resulting filtrate was centrifuged at 110,000×g for 70 minutes, whereby pellets containing concentrated EVs were obtained. The pellets were washed with 11 mL of PBS, further ultracentrifuged at 110,000×g for 70 minutes, and collected again.
(§6) The secreted EVs were collected and then suspended in PBS. […] An EV concentration was calculated as particles/cells in the culture solution, whereby a net EV secretion rate was obtained. […]
(§7) In a 6-well plate, 2 mL of the cancer cell suspension was seeded at 1.0×10^5 cells/well and incubated for 24 hours. […] 48 hours after the replacement, total RNA was extracted, and the expression of the gene of interest was measured by qPCR.
(§8) Colorectal cancer cells HCT116 and lung cancer cells A549 were each transfected with miR-891b. […] Then, according to the ExoScreen method described above, the amounts of the secreted EVs were measured by measuring the signal intensities. […]

lung cancer cells A549 [4] = experiment: Amount of secreted EVs by the NTA method; details: A549, 2.5 μmol/L, 48 hours, serine-deficient medium, compared with NC (DMSO)
Procedure: as §5, §6, §7, §8

Cc1cc(C)nc(NC(=S)N2CCN(Cc3ccc(C(F)(F)F)cc3)CC2)c1 [NCT-503]
amount of EVs accumulated in each cell (CD63 single-positive fluorescence intensity / number of nuclei) [1]: larger
amount of EVs accumulated in each cell (CD63 single-positive fluorescence intensity / number of nuclei) (lung cancer cells A549 [2]): larger
amount of EVs in the media (NTA, relative to negative control = 1) [3]: smaller
amount of EVs in the media (NTA, relative to negative control = 1) (lung cancer cells A549 [4]): smaller
